# Results: ChEMBL document CHEMBL1201862, “PubChem BioAssay data set” (2004)
#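 Exposure lasted 48 hours, with cells grown in 96-well plates and compounds tested at five concentrations. GI50: concentration for 50% inhibition of growth.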 Calls of active or inactive are those of the source. No stated cut-off is given here; in the data, active = GI50 up to about 1.1 µM and inactive = higher.
# Tests used:
# Experiment in all cases: inhibition of tumour cell growth, NCI panel, 48 h
# A549 = system: A549
# SNB-75 = system: SNB-75
# SNB-78 = system: SNB-78
# SNB-19 = system: SNB-19
# RXF 393 = system: RXF 393
# HL-60 = system: HL-60
# TK-10 = system: TK-10
# OVCAR-3 = system: OVCAR-3
# NCI-H460 = system: NCI-H460
# Malme-3M = system: Malme-3M
# OVCAR-8 = system: OVCAR-8
# CCRF-CEM = system: CCRF-CEM
# HCT-15 = system: HCT-15
# SR = system: SR
# CAKI-1 = system: CAKI-1
# HOP-92 = system: HOP-92
# SK-MEL-2 = system: SK-MEL-2
SMILES,GI50 (A549),GI50 (SNB-75),GI50 (SNB-78),GI50 (SNB-19),GI50 (RXF 393),GI50 (HL-60),GI50 (TK-10),GI50 (OVCAR-3),GI50 (NCI-H460),GI50 (Malme-3M),GI50 (OVCAR-8),GI50 (CCRF-CEM),GI50 (HCT-15) [µM],GI50 (SR),GI50 (CAKI-1),GI50 (HOP-92),GI50 (SK-MEL-2)
CN1CC(=O)N(C)c2ncn(Cc3ccccc3)c2C1=O,> 100 µM (inactive),> 100 µM (inactive),> 100 µM (inactive),> 100 µM (inactive),> 100 µM (inactive),> 100 µM (inactive),> 100 µM (inactive),> 100 µM (inactive),> 100 µM (inactive),> 100 µM (inactive),> 100 µM (inactive),> 100 µM (inactive),> 100,> 100 µM (inactive),,,
COC(=O)C1=C(c2cc(OC)c(OC)c(OC)c2)OC(c2cc(OC)c(OC)c(OC)c2)C1COC(C)=O (stereo not drawn),51.4 µM (inactive),74.6 µM (inactive),45.7 µM (inactive),> 100 µM (inactive),40.6 µM (inactive),10.3 µM (inactive),42.4 µM (inactive),33.7 µM (inactive),36.6 µM (inactive),> 100 µM (inactive),59.7 µM (inactive),41.8 µM (inactive),26.9,16.7 µM (inactive),> 100 µM (inactive),10.3 µM (inactive),
O=C(/C=C/c1ccccc1)/C=C/c1ccccc1O,23.9 µM (inactive),,37.3 µM (inactive),23.3 µM (inactive),20.8 µM (inactive),12.9 µM (inactive),30.1 µM (inactive),0.0401 µM (active),19.1 µM (inactive),< 0.01 µM (active),17 µM (inactive),17 µM (inactive),15.9,26.6 µM (inactive),22 µM (inactive),83.8 µM (inactive),59.3 µM (inactive)
Clc1ccc(CN2COc3c(cc(Cl)c4cccnc34)C2)cc1,2.39 µM (inactive),3.4 µM (inactive),4.79 µM (inactive),4.24 µM (inactive),1.58 µM (inactive),0.546 µM (active),4.57 µM (inactive),1.99 µM (inactive),2.29 µM (inactive),2.34 µM (inactive),2.04 µM (inactive),1.79 µM (inactive),0.456,1.91 µM (inactive),2.62 µM (inactive),3.64 µM (inactive),1.85 µM (inactive)
CCN(CC)c1c(C(=O)/C=C/c2ccc(OC)cc2)c(-c2ccccc2)nn(C)c1=O,12 µM (inactive),,25 µM (inactive),17.8 µM (inactive),10.6 µM (inactive),6.7 µM (inactive),32.8 µM (inactive),,7.83 µM (inactive),15.1 µM (inactive),22.2 µM (inactive),6.78 µM (inactive),,5.55 µM (inactive),29.8 µM (inactive),6.07 µM (inactive),18.6 µM (inactive)
CO/C=C/c1cc2c(cc1C(OC)OC)OCO2,> 100 µM (inactive),16.4 µM (inactive),> 100 µM (inactive),36.7 µM (inactive),40.9 µM (inactive),3.56 µM (inactive),55 µM (inactive),29.9 µM (inactive),36 µM (inactive),53.6 µM (inactive),> 100 µM (inactive),39.7 µM (inactive),,44.6 µM (inactive),29.5 µM (inactive),40.2 µM (inactive),82.2 µM (inactive)
Nc1nc2c(nnn2C2C=C(CO)C(O)C2O)c(=O)[nH]1 (stereo not drawn),> 100 µM (inactive),> 100 µM (inactive),95.3 µM (inactive),> 100 µM (inactive),78 µM (inactive),,> 100 µM (inactive),> 100 µM (inactive),> 100 µM (inactive),95.7 µM (inactive),> 100 µM (inactive),> 100 µM (inactive),> 100,> 100 µM (inactive),57.7 µM (inactive),> 100 µM (inactive),24.2 µM (inactive)
Oc1ncnc2c1CCCN2,> 100 µM (inactive),> 100 µM (inactive),> 100 µM (inactive),> 100 µM (inactive),> 100 µM (inactive),> 100 µM (inactive),> 100 µM (inactive),> 100 µM (inactive),,> 100 µM (inactive),> 100 µM (inactive),> 100 µM (inactive),> 100,> 100 µM (inactive),> 100 µM (inactive),> 100 µM (inactive),> 100 µM (inactive)
COC(=O)C(=O)C(C(=O)C1=NS(=O)(=O)c2cc(S(N)(=O)=O)c(Cl)cc2N1)c1nc2ccc(C(=O)c3ccccc3)cc2nc1O (stereo not drawn),> 100 µM (inactive),,85.1 µM (inactive),> 100 µM (inactive),> 100 µM (inactive),,> 100 µM (inactive),,> 100 µM (inactive),> 100 µM (inactive),59 µM (inactive),75.5 µM (inactive),> 100,47.9 µM (inactive),57.8 µM (inactive),,> 100 µM (inactive)
